Experimental data taken from publication PMC7006784, “The combination of salvianolic acid A with latamoxef completely protects mice against lethal pneumonia caused by methicillin-resistant Staphylococcus aureus” (Emerging Microbes & Infections, 2020).
Marks after values point to notes of the source that are not given here.

Tests used:
[1] = system: T1, WT-SrtA; assay: Fluorescence quenching assay, WT-SrtA; assay type: binding, S. aureus
T1 construct: The gene encoding SrtA (lacking the N-terminal transmembrane domain (N1–59)); 6xHis (N); made in house
Description: (§1) The fluorescence quenching assay was performed as previously described. Briefly, purified SrtA and mutant protein were diluted to 500 ng/ml with PBS. A total of 2.5 ml diluted protein solution was mixed with Sal A at different concentrations ranging from 0 to 4.5 μg. After incubation for 10 min, the fluorescence spectra of the mixed solutions were measured using a fluorescence spectrophotometer (RF5301, Japan). For the fluorescence measurement, the excitation and emission slits were set at 5.0 nm, the excitation wavelength was set at 280 nm, and fluorescence emission spectra in the range of 290–500 nm were scanned; the fluorescence intensity at 340 nm was recorded. All assays were performed in triplicate.

[2] = system: S. aureus USA300; assay: Pneumonia model, bacterial load and histopathology of the lungs; assay type: in vivo, C57BL/6J mice; settings: mice, 1 × 10^9 CFU i.n., 24 h
Description: The animal experiments were performed using 6- to 8-week-old female C57BL/6J mice obtained from the Experimental Animal Center of Jilin University and conducted according to the guidelines of the Animal Care and Use Committee of Jilin University. The mouse S. aureus pneumonia model was generated as described previously. Briefly, the mice were anaesthetized with ether and inoculated with 30 μl bacterial resuspension via the left nare. The mice were then held upright to allow the bacteria to be inhaled into the lungs. For the survival assessment, groups of 10 mice were challenged with 2 × 10^9 CFU S. aureus. One hour after intranasal inoculation, the mice were subcutaneously injected with 100 mg/kg of Sal A, 75 mg/kg of latamoxef or 100 mg/kg of Sal A plus 75 mg/kg of latamoxef at 12 h intervals, and survival was assessed for 96 h. For the bacterial load, histopathological, and bronchoalveolar lavage fluid (BALF) experiments, mice were inoculated with 1 × 10^9 CFU S. aureus. The mice were then given a subcutaneous injection of 100 mg/kg Sal A, 75 mg/kg latamoxef or a combination of 100 mg/kg Sal A and 75 mg/kg every 12 h. After 24 h, the left lung of each anaesthetized mouse was aseptically excised and homogenized, and the CFU was determined by serial dilutions. The right lungs from each group of mice were excised for histopathological analysis, and the samples were fixed in 10% formalin and stained with haematoxylin and eosin (H&E).

[3] = system: T2, I182A-SrtA; assay: Fluorescence quenching assay, I182A-SrtA; assay type: binding, S. aureus; settings: fluorescence spectroscopy quenching
T2 construct: The gene encoding SrtA (lacking the N-terminal transmembrane domain (N1–59)); 6xHis (N); made in house
Description: as §1

[4] = system: T3, R197A-SrtA; assay: Fluorescence quenching assay, R197A-SrtA; assay type: binding, S. aureus; settings: fluorescence spectroscopy quenching
T3 construct: The gene encoding SrtA (lacking the N-terminal transmembrane domain (N1–59)); 6xHis (N); made in house
Description: as §1

[5] = target: T4, SrtA (Staphylococcus aureus, UniProt Q2FV99); assay: SrtA activity assay (FRET); assay type: biochemical, S. aureus
T4 construct: The gene encoding SrtA (lacking the N-terminal transmembrane domain (N1–59)); made in house
T4 sequence (Q2FV99 60-206): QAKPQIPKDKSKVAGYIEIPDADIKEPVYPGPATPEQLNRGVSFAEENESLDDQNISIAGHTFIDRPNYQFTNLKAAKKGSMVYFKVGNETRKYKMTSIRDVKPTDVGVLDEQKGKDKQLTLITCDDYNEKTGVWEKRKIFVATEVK
Description: The SrtA activity assay was performed by using FRET as described previously. Briefly, a mixture of 4 μM recombinant SrtA and different concentrations of Sal A in a 300 μl reaction volume (50 mM Tris·HCl, 150 mM NaCl and 5 mM CaCl2, pH 7.5) was incubated for 1 h at 37°C. Then, 10 μM substrate peptide was added and incubated for an additional hour. Wells containing all constituents except SrtA served as blank controls. The fluorescence was measured with a microplate reader at λex = 350 nm and λem = 495 nm.

[6] = system: S. aureus biofilm; assay: Biofilm formation assay; assay type: cell-based; settings: Staphylococcus aureus, 18 h, read-out: inhibition of biofilm formation compared with the untreated group
Description: Overnight cultures of S. aureus were diluted 1:100 in BHI media with or without Sal A to an OD600 of 0.6. Then, 5 µl of the bacterial culture was added to 195 µl BHI media with or without Sal A in a 96-well plate. The plate was incubated at 37°C for 18 h to form a biofilm, which was then quantitated as described previously.

[7] = system: SrtA; assay: Western blot of SrtA expression; assay type: cell-based, S. aureus; settings: 256, 128, 64, or 32 μg/ml, Western blot with grayscale analysis
Description: The dissolved cell wall proteins and cytoplasmic membranes were obtained according to a previously reported method. Equal volumes of protein extract were separated using a 12% SDS-PAGE gel, and the proteins were transferred onto polyvinylidine difluoride membranes (Wako Pure Chemical Industries, Ltd., Osaka, Japan). After blotting, the membrane was blocked with 5% BSA for 2 h and probed with primary antibodies against S. aureus SrtA overnight at 4°C. Next, the membrane was washed and incubated with HRP-labelled goat anti-rabbit IgG. After washing again with PBS, the immunoreactive bands were visualized by an ECL Western blot detection system (GE Healthcare, UK). The primary antibodies against S. aureus SrtA were produced in-house by our team members. The secondary HRP-labelled goat anti-rabbit IgG antibody was obtained from Proteintech (Chicago, USA).

[8] = system: TNF-α, IL-6, IL-1β; assay: Pneumonia model, cytokines in BALF (ELISA); assay type: in vivo, C57BL/6J mice; settings: mice, 1 × 10^9 CFU i.n.; 100 mg/kg s.c.; 24 h after infection
Description: For the determinations of the levels of TNF-α, IL-6, IL-1β, 24 h after inoculation with bacteria, the lungs of anaesthetized mice were lavaged with a tracheal cannula according to a procedure described previously. The lavage samples were centrifuged for 10 min at 500 × g and 4°C. The supernatant was collected, and the amounts of cytokines were quantified using commercial enzyme-linked immunosorbent assay (ELISA) kits (eBioscience, San Diego, CA) according to the manufacturer’s protocols. All animal experiments were replicated at least twice, with essentially identical results.

[9] = target: T4, SrtA; assay: Reversible inhibition assay of SrtA; assay type: biochemical, S. aureus; settings: after incubation at 10 × IC50 and dilution
Description: To evaluate the reversible inhibition by Sal A of SrtA, 100 μl of purified SrtA was incubated with Sal A at a final concentration equal to 10-fold the IC50 for 1 h at 37°C. Then, 9.9 ml reaction buffer was added. Subsequently, 10 μl of the substrate peptide was added to the 190 μl diluted mixture at a final concentration of 10 μM. The fluorescence intensity was measured using a microplate reader at λex = 350 nm and λem = 495 nm. Triplicate measurements were obtained for each data point, and the data are reported as the mean ± SEM.

[10] = system: A549 cells; assay: Invasion assay (internalization of S. aureus into A549 cells); assay type: cell-based; settings: CFU count
Description: The assay of the internalization of S. aureus into A549 cells was performed as described. Briefly, 3 × 10^5 A549 cells were plated in each well of a 24-well plate and incubated at 37°C in 5% CO2 for 12 h. S. aureus was grown in BHI broth with or without Sal A to an OD600 of 1.0. Then, the bacterial suspension was added to the plate and incubated for 1 h. The bacterial suspension was discarded, and the A549 cells were washed three times with PBS and treated with DMEM containing 300 μg/ml gentamycin. After incubation for 2 h, the plates were washed three times, and the cells were lysed with sterile distilled water. The lysates were diluted 100-fold in PBS and spread onto BHI agar plates in triplicate. The plates were incubated at 37°C for 12 h, and the number of colony-forming unit (CFU) was determined by manual counting.

## O=C(/C=C/c1ccc(O)c(O)c1/C=C/c1ccc(O)c(O)c1)O[C@H](Cc1ccc(O)c(O)c1)C(=O)O [Sal A, (2R)-3-(3,4-Dihydroxyphenyl)-2-[(E)-3-[2-[(E)-2-(3,4-dihydroxyphenyl)ethenyl]-3,4-dihydroxyphenyl]prop-2-enoyl]oxypropanoic acid]
[1]; fluorescence quenching, WT SrtA
  KA: 58000 L/mol
[1]; fluorescence spectroscopy quenching, WT-SrtA
  KA: 5.8 (1 × 10^4) l/mol
[2]; s.c. 100 mg/kg Sal A and/or 75 mg/kg latamoxef every 12 h
  viable MRSA loads in the lungs in comparison with the control: significantly decreased
[2]; s.c. 100 mg/kg Sal A and/or 75 mg/kg latamoxef, H&E
  pulmonary inflammation (histopathology of the lungs): alleviated
[3]
  KA: 1.03 (1 × 10^4) l/mol
[4]
  KA: 2.22 (1 × 10^4) l/mol
[5]
  IC50: 11.6 µM
[6]
  inhibition at 256 µg/mL: 33.1%
[7]
  expression of SrtA: did not impact the expression
[8]
  levels of TNF-α, IL-6, and IL-1β in the BALF compared with the control group: significantly downregulated
[9]
  SrtA activity recovered in comparison with the control group: 88 ± 3.21%
[10]
  number of bacteria entering the cells compared to the control group: significant reduction
